For the test, the system named is BDF1 mice, P388 leukemia ip, median survival T/C. The test is described as follows: NCI In Vivo Anticancer Drug Screen. Data for tumor model P388 Leukemia (intraperitoneal) in B6D2F1 (BDF1) mice. As to conditions: endpoint: median survival time, higher = longer survival. An outline of the steps:
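Transplantable tumour in mice; compound vs vehicle dosing; survival scored; ratio of treated to control reported.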

The mark [1] stands for this setting: dose: 6.25 mg/kg/injection, schedule: Q01DX009 (ip), vehicle: saline.
Setting [2] is: dose: 12.5 mg/kg/injection, schedule: Q01DX009 (ip), vehicle: saline.
The mark [3] stands for this setting: dose: 25.0 mg/kg/injection, schedule: Q01DX009 (ip), vehicle: saline.
[4] abbreviates: dose: 50.0 mg/kg/injection, schedule: Q01DX001 (ip), vehicle: saline.
[5] abbreviates: dose: 50.0 mg/kg/injection, schedule: Q01DX009 (ip), vehicle: saline with Tween-80.
Where [6] appears, read: dose: 100.0 mg/kg/injection, schedule: Q01DX009 (ip), vehicle: saline with Tween-80.
The mark [7] stands for this setting: dose: 200.0 mg/kg/injection, schedule: Q01DX009 (ip), vehicle: saline with Tween-80.
Where [8] appears, read: dose: 100.0 mg/kg/injection, schedule: Q04DX003 (ip), vehicle: saline with Tween-80.
The mark [9] stands for this setting: dose: 200.0 mg/kg/injection, schedule: Q04DX003 (ip), vehicle: saline with Tween-80.
Setting [10] is: dose: 400.0 mg/kg/injection, schedule: Q04DX003 (ip), vehicle: saline with Tween-80.
Where [11] appears, read: dose: 25.0 mg/kg/injection, schedule: Q01DX009 (ip), vehicle: saline with Tween-80.
Where [12] appears, read: dose: 50.0 mg/kg/injection, schedule: Q01DX009 (ip), vehicle: Klucel (hydroxypropylcellulose) (HPC).
Where [13] appears, read: dose: 100.0 mg/kg/injection, schedule: Q01DX009 (ip), vehicle: Klucel (hydroxypropylcellulose) (HPC).
Where [14] appears, read: dose: 100.0 mg/kg/injection, schedule: Q04DX003 (ip), vehicle: Klucel (hydroxypropylcellulose) (HPC).
Setting [15] is: dose: 200.0 mg/kg/injection, schedule: Q04DX003 (ip), vehicle: Klucel (hydroxypropylcellulose) (HPC).
Where [16] appears, read: dose: 50.0 mg/kg/injection, schedule: Q01DX009 (ip), vehicle: saline.
Where [17] appears, read: dose: 100.0 mg/kg/injection, schedule: Q01DX009 (ip), vehicle: saline.
The mark [18] stands for this setting: dose: 200.0 mg/kg/injection, schedule: Q01DX009 (ip), vehicle: saline.

Each structure is given as a SMILES string. Values joined by “and” are separate entries in the source; they are usually repeats but may differ in a detail not shown here. Equal entries are not always repeated. Toxic doses and inconclusive results are not listed.

`O=S(=O)(O)O.[O]=[V]`: the T/C reads like this: (dose: 3.12 mg/kg/injection, schedule: Q01DX009 (ip), vehicle: saline) 89 % of control; under setting [1], 92 % of control; (dose: 8.75 mg/kg/injection, schedule: Q01DX001 (ip), vehicle: saline) 95 % of control; under setting [2], 100 % of control; (dose: 12.5 mg/kg/injection, schedule: Q04DX003 (ip), vehicle: saline) 92 % of control and 100 % of control; (dose: 17.5 mg/kg/injection, schedule: Q01DX001 (ip), vehicle: saline) 100 % of control. The T/C is, setting by setting: under setting [3], 100 % of control; (dose: 25.0 mg/kg/injection, schedule: Q04DX003 (ip), vehicle: saline) 95 % of control; (dose: 35.0 mg/kg/injection, schedule: Q01DX001 (ip), vehicle: saline) 100 % of control; under setting [4], 90 % of control; (dose: 50.0 mg/kg/injection, schedule: Q04DX003 (ip), vehicle: saline) 89 % of control.

As to `CN(C)P(N)(=S)N(C)C`, the T/C runs as follows: under setting [5], 96 % of control; under setting [6], 91 % of control; under setting [7], 96 % of control.

As to `C=C(C)S(=O)(=O)c1ccc(C)cc1`, the T/C is 108 % of control under setting [8], 91 % of control under setting [9] and 88 % of control under setting [10].

As for `BrCC1CCCO1` (centres undefined), the T/C was 101 % of control under setting [11] and 110 % of control under setting [5].

Consider `CCCCCC(CN(C)C)C(=O)/C=C/c1ccc(Cl)c(Cl)c1` (centres undefined), for which the T/C runs as follows: (dose: 2.75 mg/kg/injection, schedule: Q01DX009 (ip), vehicle: saline) 110 % of control; (dose: 4.12 mg/kg/injection, schedule: Q01DX009 (ip), vehicle: saline) 105 % of control; under setting [4], 100 % of control.

On to `Cc1cc2nccc(/C=C/c3ccc(N(C)C)cc3)c2cc1C`, for which the T/C is, setting by setting: under setting [5], 112 % of control; under setting [6], 120 % of control; under setting [7], 98 % of control.

As to `c1ccc(Oc2c3ccccc3nc3ccccc23)cc1`, the T/C (dose: 50.0 mg/kg/injection, schedule: Q01DX005 (ip), vehicle: saline with Tween-80) was 123 % of control.

`Cc1cc(=O)c2cccc(C)c2[nH]1`: the T/C runs as follows: under setting [12], 96 % of control; under setting [13], 96 % of control; under setting [14], 95 % of control; (dose: 200.0 mg/kg/injection, schedule: Q01DX009 (ip), vehicle: Klucel (hydroxypropylcellulose) (HPC)) 92 % of control; under setting [15], 91 % of control.

Turning to `CC/C(=N\NS(=O)(=O)c1ccc(C)cc1)c1ccc(OC)cc1`, the T/C under setting [16] was 92 % of control, the T/C under setting [17] is 104 % of control and the T/C under setting [18] is 93 % of control.

Take `Cl`: the T/C is 100 % of control (dose: 0.62 mg/kg/injection, schedule: Q01DX009 (ip), vehicle: water); 90 % of control (dose: 1.25 mg/kg/injection, schedule: Q01DX009 (ip), vehicle: water); 104 % of control (dose: 2.5 mg/kg/injection, schedule: Q01DX009 (ip), vehicle: water); 95 % of control (dose: 5.0 mg/kg/injection, schedule: Q01DX009 (ip), vehicle: water); 100 % of control (dose: 10.0 mg/kg/injection, schedule: Q01DX009 (ip), vehicle: water); 100 % of control (dose: 20.0 mg/kg/injection, schedule: Q01DX009 (ip), vehicle: water). The T/C is 90 % of control (dose: 25.0 mg/kg/injection, schedule: Q01DX009 (ip), vehicle: water) and 104 % of control (dose: 50.0 mg/kg/injection, schedule: Q01DX009 (ip), vehicle: water).

With `Nc1ncccc1C1CCCS1` (centres undefined), the T/C (dose: 50.0 mg/kg/injection, schedule: Q04DX002 (ip), vehicle: saline with Tween-80) was 104 % of control; the T/C (dose: 100.0 mg/kg/injection, schedule: Q04DX002 (ip), vehicle: saline with Tween-80) is 98 % of control; the T/C (dose: 200.0 mg/kg/injection, schedule: Q04DX002 (ip), vehicle: saline with Tween-80) was 91 % of control.

As for `Cc1cc(C)c[n+](C2=C([O-])C(=O)C([n+]3cc(C)cc(C)c3)=C([O-])C2=O)c1`, the T/C reads like this: under setting [5], 97 % of control; under setting [6], 97 % of control; under setting [7], 95 % of control.

Consider `CCOC(=O)Nc1ccc(/C=C\c2ccnc3ccccc23)cc1`, for which the T/C is 106 % of control (dose: 12.5 mg/kg/injection, schedule: Q01DX009 (ip), vehicle: saline with Tween-80); 115 % of control under setting [11]; 92 % of control and 94 % of control under setting [5].

For the compound `O=C(O)/C=C/c1ccccc1C(=O)O`, the T/C was 100 % of control (dose: 100.0 mg/kg/injection, schedule: Q01DX001 (ip), vehicle: saline); 100 % of control (dose: 200.0 mg/kg/injection, schedule: Q01DX001 (ip), vehicle: saline); 109 % of control (dose: 400.0 mg/kg/injection, schedule: Q01DX001 (ip), vehicle: saline).

Turning to `COC12C(COC(=O)NCCO)C3=C(C(=O)C(C)=C(N)C3=O)N1CC1NC12` (centres undefined), the T/C runs as follows: under setting [1], 209 % of control; under setting [2], 228 % of control and 230 % of control; under setting [3], 231 % of control and 254 % of control.

For the compound `CCCCCCCCCCCCCCCCOc1ccccn1`, the T/C reads like this: (dose: 25.0 mg/kg/injection, schedule: Q01DX009 (ip), vehicle: Klucel (hydroxypropylcellulose) (HPC)) 91 % of control; under setting [12], 95 % of control; under setting [13], 95 % of control; under setting [14], 100 % of control; under setting [15], 104 % of control; (dose: 400.0 mg/kg/injection, schedule: Q04DX003 (ip), vehicle: Klucel (hydroxypropylcellulose) (HPC)) 122 % of control.

In the case of `C=CCOc1ccccc1-c1nnn(C)n1`, the T/C reads like this: under setting [8], 95 % of control; under setting [9], 97 % of control; under setting [10], 104 % of control.

`O/N=C/C=N/O.O/N=C/C=N/O.[Cl][Rh][Cl]`: the T/C by setting is: under setting [3], 99 % of control; under setting [16], 94 % of control; under setting [17], 108 % of control; under setting [18], 100 % of control; (dose: 400.0 mg/kg/injection, schedule: Q01DX009 (ip), vehicle: saline) 91 % of control.

Consider `CC(C)c1ccc(N2C(N)=NC(N)=NC2(C)C)cc1`, for which the T/C is 110 % of control (dose: 12.5 mg/kg/injection, schedule: Q01DX005 (ip), vehicle: Klucel (hydroxypropylcellulose) (HPC)); 108 % of control (dose: 25.0 mg/kg/injection, schedule: Q01DX005 (ip), vehicle: Klucel (hydroxypropylcellulose) (HPC)); 105 % of control (dose: 50.0 mg/kg/injection, schedule: Q01DX005 (ip), vehicle: Klucel (hydroxypropylcellulose) (HPC)).

The values are drawn from PubChem BioAssay AID328 (DTP/NCI, 2004).
